Experimental data published in patent US6844312B2, “Production of tyrosine hydroxylase positive neurons” (Stem Cell Therapeutics Inc., priority 2001, dated 2005).

Test system: neural stem cells
Assay: Effect of PACAP in lieu of forskolin in the TH cocktail on neural stem cell culture
Assay type: cell-based, mice
Conditions: 2 nM PACAP versus 1 μM forskolin in the TH cocktail
Description: A control experiments using 1 μM forskolin and no PACAP was performed in parallel as a comparison.

In the case of “pituitary adenylate cyclase activating polypeptide [PACAP]”, the “effectiveness in the production of TH positive neurons” value is reported as “more effective than forskolin”.
